molecular target: T1, recombinant human GST-Syk (Homo sapiens, UniProt P43405); assay: Homogeneous Time-Resolved Fluorescence (HTRF) assay for the recombinant human Syk enzyme; format: biochemical; settings: recombinant human GST-Syk 5 pM, ATP 25 μM, 10-dose titration 10 μM to 0.508 nM; read-out: rhSYK Activity IC50
T1 construct: purchased Carna Biosciences 08-176
In short: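 Detection used time-resolved fluorescence 30 min after adding a quench mix (40 mM EDTA, 15 mM Tris pH 7.5, 0.01% Tween 20) containing 2 nM Europium anti-pTyr antibody and 70 nM streptavidin-APC. This followed 45 min of room-temperature peptide phosphorylation by recombinant GST-tagged human Syk.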

Row | IC50 [nM] | SMILES
1 | 1.6 | Cc1cc(Nc2cc(C(F)F)ccn2)nc(-c2cn(CC3OC(=O)NC3C)nn2)c1 (single isomer, unassigned) [Example 7.14, 5-((4-(6-((4-(difluoromethyl)pyridin-2-yl)amino)-4-methylpyridin-2-yl)-1H-1,2,3-triazol-1-yl)methyl)-4-methyloxazolidin-2-one]
2 | 4.3 | Cc1cc(Nc2cc(C(F)F)ccn2)nc(-c2cn(CC3OC(=O)NC3C)nn2)c1 (single isomer, unassigned) [Example 7.15, 5-((4-(6-((4-(difluoromethyl)pyridin-2-yl)amino)-4-methylpyridin-2-yl)-1H-1,2,3-triazol-1-yl)methyl)-4-methyloxazolidin-2-one]
3 | 1.1 | Cc1cc(Nc2nccc(C(F)F)n2)cc(-c2cn(CC3OC(=O)NC34CC4)nn2)c1 (single isomer, unassigned) [Example 7.17, 7-((4-(3-((4-(difluoromethyl)pyrimidin-2-yl)amino)-5-methylphenyl)-1H-1,2,3-triazol-1-yl)methyl)-6-oxa-4-azaspiro[2.4]heptan-5-one]
4 | 16.2 | Cc1cc(Nc2nccc(C(F)F)n2)cc(-c2cn(C3CCCCC3(C)O)nn2)c1 (single isomer, unassigned) [Example 7.19, 2-[4-(3-{[4-(difluoromethyl)pyrimidin-2-yl]amino}-5-methylphenyl)-1H-1,2,3-triazol-1-yl]-1-methylcyclohexanol]
5 | 15.4 | Cc1cc(Nc2nccc(C(F)F)n2)cc(-c2cn(C3CCCCC3(C)O)nn2)c1 (single isomer, unassigned) [Example 7.20, 2-[4-(3-{[4-(difluoromethyl)pyrimidin-2-yl]amino}-5-methylphenyl)-1H-1,2,3-triazol-1-yl]-1-methylcyclohexanol]
6 | 90.4 | Cc1cc(Nc2nccc(C)n2)cc(-c2cn(C3CCCCC3(C)O)nn2)c1 (single isomer, unassigned) [Example 7.27, 1-methyl-2-(4-{3-methyl-5-[(4-methylpyrimidin-2-yl)amino]phenyl}-1H-1,2,3-triazol-1-yl)cyclohexanol]
7 | 14.3 | Cc1cc(Nc2ncc(F)c(C(F)F)n2)cc(-c2cn(C3CCCCC3O)nn2)c1 (single isomer, unassigned) [Example 7.29, 2-[4-(3-{[4-(difluoromethyl)-5-fluoropyrimidin-2-yl]amino}-5-methylphenyl)-1H-1,2,3-triazol-1-yl]cyclohexanol]

Continued, compound first:

Row | SMILES | IC50 [nM]
8 | Cc1cc(Nc2nccc(C(F)F)n2)cc(-c2cn(CC3OC(=O)NC34CC4)nn2)c1 (single isomer, unassigned) [Example 7.18, 7-((4-(3-((4-(difluoromethyl)pyrimidin-2-yl)amino)-5-methylphenyl)-1H-1,2,3-triazol-1-yl)methyl)-6-oxa-4-azaspiro[2.4]heptan-5-one] | 11.7
9 | Cc1cc(Nc2nccc(C)n2)cc(-c2cn(C3CCCCC3O)nn2)c1 (single isomer, unassigned) [Example 7.21, 2-(4-{3-methyl-5-[(4-methylpyrimidin-2-yl)amino]phenyl}-1H-1,2,3-triazol-1-yl)cyclohexanol] | 69.5
10 | Cc1cc(Nc2nccc(C)n2)cc(-c2cn(C3CCCCC3O)nn2)c1 (single isomer, unassigned) [Example 7.22, 2-(4-{3-methyl-5-[(4-methylpyrimidin-2-yl)amino]phenyl}-1H-1,2,3-triazol-1-yl)cyclohexanol] | 56
11 | Cc1cc(Nc2cc(C(F)F)ccn2)nc(-c2cn(C3CCCCC3O)nn2)c1 (single isomer, unassigned) [Example 7.23, 2-[4-(6-{[4-(difluoromethyl)pyridin-2-yl]amino}-4-methylpyridin-2-yl)-1H-1,2,3-triazol-1-yl]cyclohexanol] | 3.9
12 | Cc1cc(Nc2cc(C(F)F)ccn2)nc(-c2cn(C3CCCCC3O)nn2)c1 (single isomer, unassigned) [Example 7.24, 2-[4-(6-{[4-(difluoromethyl)pyridin-2-yl]amino}-4-methylpyridin-2-yl)-1H-1,2,3-triazol-1-yl]cyclohexanol] | 1.2
13 | Cc1cc(Nc2ncc(F)c(C(F)F)n2)cc(-c2cn(C3CCCCC3(C)O)nn2)c1 (single isomer, unassigned) [Example 7.25, 2-[4-(3-{[4-(difluoromethyl)-5-fluoropyrimidin-2-yl]amino}-5-methylphenyl)-1H-1,2,3-triazol-1-yl]-1-methylcyclohexanol] | 38.2
14 | Cc1cc(Nc2ncc(F)c(C(F)F)n2)cc(-c2cn(C3CCCCC3(C)O)nn2)c1 (single isomer, unassigned) [Example 7.26, 2-[4-(3-{[4-(difluoromethyl)-5-fluoropyrimidin-2-yl]amino}-5-methylphenyl)-1H-1,2,3-triazol-1-yl]-1-methylcyclohexanol] | 13.1
15 | Cc1cc(Nc2nccc(C)n2)cc(-c2cn(C3CCCCC3(C)O)nn2)c1 (single isomer, unassigned) [Example 7.28, 1-methyl-2-(4-{3-methyl-5-[(4-methylpyrimidin-2-yl)amino]phenyl}-1H-1,2,3-triazol-1-yl)cyclohexanol] | 77.6
16 | Cc1cc(Nc2ncc(F)c(C(F)F)n2)cc(-c2cn(C3CCCCC3O)nn2)c1 (single isomer, unassigned) [Example 7.30, 2-[4-(3-{[4-(difluoromethyl)-5-fluoropyrimidin-2-yl]amino}-5-methylphenyl)-1H-1,2,3-triazol-1-yl]cyclohexanol] | 9.9
17 | Cc1cc(Nc2nccc(C(F)F)n2)cc(-c2cn(CC3(C)CNC(=O)O3)nn2)c1 (single isomer, unassigned) [Example 7.31, 5-{[4-(3-{[4-(difluoromethyl)pyrimidin-2-yl]amino}-5-methylphenyl)-1H-1,2,3-triazol-1-yl]methyl}-5-methyl-1,3-oxazolidin-2-one] | 8
18 | Cc1cc(Nc2nccc(C(F)F)n2)cc(-c2cn(CC3(C)CNC(=O)O3)nn2)c1 (single isomer, unassigned) [Example 7.32, 5-{[4-(3-{[4-(difluoromethyl)pyrimidin-2-yl]amino}-5-methylphenyl)-1H-1,2,3-triazol-1-yl]methyl}-5-methyl-1,3-oxazolidin-2-one] | 5
19 | Cc1cc(Nc2ncc(F)c(C(F)F)n2)cc(-c2cn(CC3OC(=O)NC34CC4)nn2)c1 (single isomer, unassigned) [Example 7.33, 7-{[4-(3-{[4-(difluoromethyl)-5-fluoropyrimidin-2-yl]amino}-5-methylphenyl)-1H-1,2,3-triazol-1-yl]methyl}-6-oxa-4-azaspiro[2.4]heptan-5-one] | 11.1
20 | Cc1cc(Nc2ncc(F)c(C(F)F)n2)cc(-c2cn(CC3OC(=O)NC34CC4)nn2)c1 (single isomer, unassigned) [Example 7.34, 7-{[4-(3-{[4-(difluoromethyl)-5-fluoropyrimidin-2-yl]amino}-5-methylphenyl)-1H-1,2,3-triazol-1-yl]methyl}-6-oxa-4-azaspiro[2.4]heptan-5-one] | 9.9
21 | Cc1cc(Nc2ncc(F)c(C(F)F)n2)cc(-c2cn(CC3CNC(=O)O3)nn2)c1 (single isomer, unassigned) [Example 7.35, 5-{[4-(3-{[4-(difluoromethyl)-5-fluoropyrimidin-2-yl]amino}-5-methylphenyl)-1H-1,2,3-triazol-1-yl]methyl}-1,3-oxazolidin-2-one] | 7.6

From patent publication US9586931B2 (Merck Sharp & Dohme Corp., priority 2012, dated 2017)
